# Data taken from EP2236511A2, “LIGANDS OF ALPHA-ADRENOCEPTORS AND OF DOPAMINE, HISTAMINE, IMIDAZOLINE AND SEROTONIN RECEPTORS AND THE USE THEREOF” (priority 2007, dated 2009).
# How the values were obtained:
# [1] = target: T1, recombinant human 5-HT2A receptor (Homo sapiens, UniProt P28223); experiment: Radioligand binding to serotonin receptor 5-HT2A ([3H] Ketanserin, CHO-K1 membranes); details: 10 µM ligand
# T1 construct: expressed in transfected cells; host or cells: CHO-K1
# From the text: 9-C. […] J Neurochem. […] Ketanserin is used as positive control.
# [2] = target: T2, recombinant human 5-HT2B receptor (Homo sapiens, UniProt P41595); experiment: Radioligand binding to serotonin receptor 5-HT2B ([3H] Lysergic acid diethylamide, CHO-K1 membranes); details: 10 µM ligand
# T2 construct: expressed in transfected cells; host or cells: CHO-K1
# T2 sequence (P41595 whole entry): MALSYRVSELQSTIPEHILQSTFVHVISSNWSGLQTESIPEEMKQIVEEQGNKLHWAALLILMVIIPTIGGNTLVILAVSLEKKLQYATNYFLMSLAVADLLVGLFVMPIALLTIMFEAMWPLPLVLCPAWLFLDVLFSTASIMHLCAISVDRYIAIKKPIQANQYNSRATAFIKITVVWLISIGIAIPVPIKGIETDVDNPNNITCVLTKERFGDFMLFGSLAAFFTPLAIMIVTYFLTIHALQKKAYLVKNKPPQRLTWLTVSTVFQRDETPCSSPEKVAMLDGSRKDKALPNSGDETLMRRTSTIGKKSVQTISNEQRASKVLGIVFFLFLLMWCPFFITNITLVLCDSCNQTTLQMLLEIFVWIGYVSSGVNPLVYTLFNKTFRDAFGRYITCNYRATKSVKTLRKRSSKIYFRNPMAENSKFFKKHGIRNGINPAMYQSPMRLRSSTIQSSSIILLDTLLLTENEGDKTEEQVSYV
# Protocol: For this purpose membrane species are prepared from CHO-K1 cells comprising recombinant human 5-HT2B receptor by homogenization of recombinant cells in glass homogenizer with the subsequent separation of plasmatic membranes from cell nuclei, mitochondrias and cell wreckages by differential centrifugation. […] After incubation the samples are filtered in vacuo on glass-microfiber filters G/F (Millipor, USA), filters are washed three times with cold solution of medium and radioactivity is measured by scintillation counter MicroBeta 340 (Perkin Elmer, USA). […] Ketanserin is used as positive control. The tested compounds' binding to the receptor is determined by their ability to displace the radioligand and is expressed in percent of displacement (%I). Values of %I are calculated according to the following equation: %I = (TA-CA)/(TA-NA)*100, [formula] wherein: TA - is the overall radioactivity in the presence of radioligand only, CA - is the radioactivity in the presence of radioligand and tested compound and NA - is the radioactivity in the presence of radioligand and Serotonin (10 µM).
# male mice of BALB/c line = experiment: Passive Avoidance of mice in the Shuttle Chamber, memory disturbed by Scopolamine; format: in vivo; details: Scopolamine 0.3 mg/kg, injected 30 minutes before training; figures 1-3
# Protocol: Example 14. […] A shuttle chamber (Ugo Basile, Italy) consisted of two sections was used. […] The sections were connected through a hole which could be overlapped by a vertical door. The floor was made of transverse metal bars on which DC current impulses could be fed. Experiments were carried out in aged male mice of BALB/c line weighing 20-24 grams.
# Each group consisted of at least 8 animals. Animal was placed in light section, and latent period of the first entry into dark chamber was registered. Then the vertical door was closed and the animal was punished by 0.6 mA DC current for 3 seconds. After that it was taken back to its homecage. In 22-24 hours the same animal was placed again in light section of the shuttle chamber and latent period of its first entry into dark section, the total time of its stay in light section, and the number of entries into dark section, were registered. Each monitoring lasted for 5 minutes.
# Testing was carried out during the day time in isolated laboratory using white noise at level of about 70 decibel above human hearing threshold.
# Scopolamine causes the disturbance of training (memory loss) that results in […].
# [3] = target: T3, recombinant human 5-HT2C receptor (Homo sapiens, UniProt P28335); experiment: Radioligand binding to serotonin receptor 5-HT2C ([3H] Mesulergine, CHO-K1 membranes); details: 10 µM ligand
# T3 construct: expressed in transfected cells; host or cells: CHO-K1
# T3 sequence (P28335 33-458): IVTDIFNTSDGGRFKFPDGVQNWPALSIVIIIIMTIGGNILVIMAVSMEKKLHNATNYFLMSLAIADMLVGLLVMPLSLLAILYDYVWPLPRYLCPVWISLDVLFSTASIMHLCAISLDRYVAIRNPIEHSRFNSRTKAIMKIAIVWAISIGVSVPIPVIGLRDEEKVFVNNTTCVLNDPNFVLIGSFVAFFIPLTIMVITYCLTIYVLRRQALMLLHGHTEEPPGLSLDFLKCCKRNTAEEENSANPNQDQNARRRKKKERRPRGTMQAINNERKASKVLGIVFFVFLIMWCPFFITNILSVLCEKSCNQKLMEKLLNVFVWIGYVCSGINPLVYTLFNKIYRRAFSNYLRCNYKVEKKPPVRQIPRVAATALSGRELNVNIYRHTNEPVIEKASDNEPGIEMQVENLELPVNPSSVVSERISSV
# From the text: J Neurochem. 69: 1449 - 1458, 1997]. […] SB242084 is used as positive control.
# [4] = target: T4, serotonin receptor 5-HT1B (Rattus norvegicus, UniProt P28564); experiment: Radioligand binding to serotonin receptor 5-HT1B ([125I] cyanopindolol, rat brain cortex membranes); details: 10 µM ligand
# T4 construct: membrane species are prepared from rat brains (Wistar) by homogenization of species of rat brain-cortices; from tissue; host or cells: rat (Wistar) brain cortex
# T4 sequence (P28564 whole entry): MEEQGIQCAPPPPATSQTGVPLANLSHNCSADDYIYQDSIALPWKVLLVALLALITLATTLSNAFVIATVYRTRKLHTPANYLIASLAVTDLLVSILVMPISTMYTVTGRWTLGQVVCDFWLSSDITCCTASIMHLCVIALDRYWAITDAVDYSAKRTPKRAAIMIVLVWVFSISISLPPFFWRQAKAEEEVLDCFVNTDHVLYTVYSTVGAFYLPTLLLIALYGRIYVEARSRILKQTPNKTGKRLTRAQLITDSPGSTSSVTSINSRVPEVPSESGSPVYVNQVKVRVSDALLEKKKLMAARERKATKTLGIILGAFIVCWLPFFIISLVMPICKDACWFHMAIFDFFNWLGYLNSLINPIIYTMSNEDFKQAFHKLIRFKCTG
# From the text: Serotonin is used as positive control.
# human H2 receptor = target: T5, human H2 receptor (Homo sapiens, UniProt P25021); experiment: Radioligand binding to histamine receptor H2 ([125I] Aminopotentidine, CHO-K1 membranes); details: 10 µM ligand
# T5 construct: expressed in transfected cells; host or cells: CHO-K1
# T5 sequence (P25021 whole entry): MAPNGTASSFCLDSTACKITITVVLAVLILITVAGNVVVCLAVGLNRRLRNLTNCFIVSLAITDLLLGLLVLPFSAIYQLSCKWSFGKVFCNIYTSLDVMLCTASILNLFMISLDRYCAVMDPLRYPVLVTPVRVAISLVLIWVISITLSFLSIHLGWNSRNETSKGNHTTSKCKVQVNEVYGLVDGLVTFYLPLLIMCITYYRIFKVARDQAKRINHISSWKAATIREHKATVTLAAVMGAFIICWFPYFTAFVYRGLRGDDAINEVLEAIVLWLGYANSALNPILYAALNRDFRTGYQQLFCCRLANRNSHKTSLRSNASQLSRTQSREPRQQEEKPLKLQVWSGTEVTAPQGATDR
# From the text: Proc Natl Acad Sci USA. 87(5): 1658-1662, 1990]. […] Proc Natl Acad Sci USA. 87(5): 1658-1662, 1990]. […] Tiotidine is used as positive control.
# human H1 receptor = target: T6, human H1 receptor (Homo sapiens, UniProt P35367); experiment: Radioligand binding to histamine receptor H1 ([3H] Pyrilamine, CHO-K1 membranes); details: 10 µM ligand; 10 µM
# T6 construct: expressed in transfected cells; host or cells: CHO-K1
# T6 sequence (P35367 whole entry): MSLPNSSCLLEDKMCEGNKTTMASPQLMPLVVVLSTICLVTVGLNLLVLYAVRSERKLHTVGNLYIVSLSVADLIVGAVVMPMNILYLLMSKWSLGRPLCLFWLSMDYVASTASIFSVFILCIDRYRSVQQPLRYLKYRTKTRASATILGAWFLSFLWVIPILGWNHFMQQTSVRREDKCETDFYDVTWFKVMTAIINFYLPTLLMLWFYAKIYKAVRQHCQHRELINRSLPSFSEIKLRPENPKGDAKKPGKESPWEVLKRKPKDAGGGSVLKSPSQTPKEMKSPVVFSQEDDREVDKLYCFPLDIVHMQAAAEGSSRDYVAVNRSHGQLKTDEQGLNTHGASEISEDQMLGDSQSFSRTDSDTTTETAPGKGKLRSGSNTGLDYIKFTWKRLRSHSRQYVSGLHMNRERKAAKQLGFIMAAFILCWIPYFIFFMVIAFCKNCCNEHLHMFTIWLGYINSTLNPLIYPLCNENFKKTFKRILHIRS
# From the text: Biochem Biophys Res Comm. 197(3): 1601-1608, 1993]. […] Biochem Biophys Res Comm. 197(3): 1601-1608, 1993].
# Pyrilamine is used as positive control.
# T1 sequence (P28223 whole entry): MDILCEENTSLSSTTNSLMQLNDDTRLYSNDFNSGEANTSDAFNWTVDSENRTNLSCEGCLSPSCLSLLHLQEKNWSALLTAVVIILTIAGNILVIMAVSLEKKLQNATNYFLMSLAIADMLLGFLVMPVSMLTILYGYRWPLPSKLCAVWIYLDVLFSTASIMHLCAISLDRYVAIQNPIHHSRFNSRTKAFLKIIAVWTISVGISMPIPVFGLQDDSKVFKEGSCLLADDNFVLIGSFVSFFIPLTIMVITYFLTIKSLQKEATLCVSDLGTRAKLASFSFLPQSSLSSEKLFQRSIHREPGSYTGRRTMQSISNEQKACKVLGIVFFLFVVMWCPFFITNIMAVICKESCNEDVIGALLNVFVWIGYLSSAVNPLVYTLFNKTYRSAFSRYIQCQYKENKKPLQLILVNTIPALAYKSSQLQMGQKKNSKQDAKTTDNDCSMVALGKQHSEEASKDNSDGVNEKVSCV
structure (smiles),measurement,setting,value
Cc1ccc2c(c1)c1c(n2/C=C\c2ccccc2)CCN(C)C1 [1.1(6)],5-HT2A % inhibition,[1],100%
same,5-HT2B % inhibition,[2],98%
same,enhancement of memory disturbed by Scopolamine,male mice of BALB/c line,improve memory
same,5-HT2C % inhibition,[3],101%
same,5-HT1B % inhibition,[4],86%
COc1ccc2c(c1)c1c(n2CCc2ccccn2)CCN(C)C1 [1.1.2(2-4)·2HCl],enhancement of memory disturbed by Scopolamine,male mice of BALB/c line,improve memory
"Cc1ccc2c(c1)c1c(n2CCc2ccc(C)nc2)CCN(C)C1 [1.1.2(4-4)·2CH3SO3H, 2,8-dimethyl-5-[2-(4-methylpyridin-3-yl)ethyl]-1,2,3,4-tetrahydro-1H-pyrido[4,3-b]indole bis-methylsulfonate]",inhibition at 10 µM,"human H2 receptor; read-out: Histamine receptors, % inhibition H2",99%
same,"Histamine receptors, % inhibition H1",human H1 receptor,102%
"Cc1ccc2c(c1)c1c(n2CCc2ccc(C)nc2)CCN(C)C1 [1.1.2(4-5)·1/2NDSA, 2,8-dimethyl-5-[2-(4-methylpyridin-3-yl)ethyl]-1,2,3,4-tetrahydro-1H-pyrido[4,3-b]indole naphtalene-1,5-disulfonate]","Histamine receptors, % inhibition H2",human H2 receptor; 10 µM,100%
